Consider seven compounds from EP0539170A1, “Benzodiazepine derivatives and their use as antagonists of cholecystokinin and/or gastrin receptors” (priority 1991, dated 1993).

Structures can show the parent of a compound that is named as a salt. Some results are limits rather than exact numbers.

The assay deals with T1, CCK Receptor (Pancreas) (Rattus norvegicus, UniProt P30551).
T1 construct: The whole pancreas was dissected free of fat tissue and was homogenized; from tissue; host or cells: rat pancreas membrane homogenate
T1 sequence (P30551 1-444): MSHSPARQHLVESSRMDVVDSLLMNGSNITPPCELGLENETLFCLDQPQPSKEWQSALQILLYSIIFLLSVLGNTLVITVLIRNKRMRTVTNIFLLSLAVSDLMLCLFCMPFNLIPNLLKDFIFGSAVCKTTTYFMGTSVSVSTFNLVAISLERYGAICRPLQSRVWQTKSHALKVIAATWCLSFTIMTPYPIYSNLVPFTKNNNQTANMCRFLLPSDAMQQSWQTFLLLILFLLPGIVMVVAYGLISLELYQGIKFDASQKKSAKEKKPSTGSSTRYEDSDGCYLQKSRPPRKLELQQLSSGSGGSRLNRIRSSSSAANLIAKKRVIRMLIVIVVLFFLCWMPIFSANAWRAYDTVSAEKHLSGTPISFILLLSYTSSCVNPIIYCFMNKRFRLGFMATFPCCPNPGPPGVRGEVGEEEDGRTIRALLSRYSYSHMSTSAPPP
Put plainly: CCK Receptor Binding (Pancreas), inhibition of specific 125I-CCK-8 binding. Set-up: species or system Sprague-Dawley rats. Conditions: rat whole pancreas membranes; 50 pM 125I-CCK-8; 25°C for 2 hours. A digest of the protocol: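 Rat pancreas homogenate (0.5 mg wet weight/ml) incubated 2 h at 25 °C with ¹²⁵I-Bolton Hunter-labelled sulphated CCK-8 in HEPES/EGTA/MgCl₂/NaCl buffer, pH 6.5. Bound ligand separated on GF/C filters and gamma-counted.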
In the case of `Cc1cccc(NC(=O)NC2N=C(N3CCCCCC3)c3ccccc3N(C)C2=O)c1` (single isomer, unassigned; (-)) [Example 28, (-)-N-[2,3-Dihydro-5-(homopiperidin-1-yl)-1-methyl-2-oxo-1H-1,4-benzodiazepin-3-yl]-N′-[3-methylphenyl] urea], the IC50 is more than 3000 nM.

For the compound `CCCN1C(=O)C(NC(=O)Nc2ccc3c(c2)CCC3)N=C(N2CCN(C)CC2)c2ccccc21` (single isomer, unassigned; (-)) [Example 34, (-)-N-[2,3-Dihydro-5-(4-methylpiperazin-1-yl)-2-oxo-1-propyl-1H-1,4-benzodiazepin-3-yl]-N′-[5-indanyl] urea], the concentration for half-maximal inhibition (IC50) was more than 3000 nM.

`CCCN1C(=O)C(NC(=O)Nc2cccc(N(C)C)c2)N=C(N2CCN(C)CC2)c2ccccc21` (single isomer, unassigned; (-)) [Example 41, (-)-N-[2,3-Dihydro-5-(4-methylpiperazin-1-yl)-2-oxo-1-propyl-1H-1,4-benzodiazepin-3-yl]-N′-[3-(dimethylamino)phenyl] urea] had an IC50 of more than 3000 nM. Regarding `Cc1cccc(NC(=O)NC2N=C(N3CCCCCCC3)c3ccccc3N(C)C2=O)c1` (single isomer, unassigned; (-)) [Example 51, (-)-N-[2,3-Dihydro-5-(heptamethyleneimin-1-yl)-1-methyl-2-oxo-1H-1,4-benzodiazepin-3-yl]-N′-[3-methylphenyl] urea hydrochloride], the concentration for half-maximal inhibition (IC50) is 1920 nM. `CN1C(=O)C(NC(=O)Nc2ccc3c(c2)CCC3)N=C(N2CCCCCC2)c2ccccc21` (single isomer, unassigned; (-)) [Example 58, (-)-N-[2,3-Dihydro-5-(homopiperidin-1-yl)-1-methyl-2-oxo-1H-1,4-benzodiazepin-3-yl]-N′-[5-indanyl] urea hydrochloride] registered a concentration for half-maximal inhibition (IC50) of 2430 nM.

`CCc1cccc(NC(=O)NC2N=C(N3CCCCCC3)c3ccccc3N(C)C2=O)c1` (single isomer, unassigned; (-)) [Example 67, (-)-N-[2,3-Dihydro-5-(homopiperidin-1-yl)-1-methyl-2-oxo-1H-1,4-benzodiazepin-3-yl]-N′-[3-ethylphenyl] urea hydrochloride] came in with a 50% inhibitory concentration (IC50) of 310 nM. Consider `CCCN1C(=O)C(NC(=O)Nc2cccc(C)c2)N=C(N2CCSCC2)c2ccccc21` (single isomer, unassigned; (-)) [Example 69, (-)-N-[2,3-Dihydro-2-oxo-1-propyl-5-(thiomorpholin-4-yl)-1H-1,4-benzodiazepin-3-yl]-N′-[3-methylphenyl] urea hydrochloride], for which the IC50 was determined as 515 nM.

The IC50 is the concentration that inhibits the measured activity by half. A low value points to higher potency.
